{"source": "the supplement of paper PMC4862054", "conditions_in_all_cases": "incubation time: 72 h", "key": {"BT-474 [1]": {"system": "BT-474", "assay": "drug sensitivity score (DSS), CellTiter-Blue viability (DSS (AUC-based score)); higher = stronger viability inhibition; extreme values may be limits of the assay", "procedure,_shortened": "(§1)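 Each 384-well plate was normalised to two references, 0.1 % DMSO and a positive kill control. Breast cancer cell lines (20 µl suspension) had been seeded onto compound at 5 or 9 concentrations and incubated 72 h, after which viability was read by CellTiter-Blue fluorescence at 560/590 nm. The drug sensitivity score reflects the area under the fitted dose-response curve.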"}, "SK-BR-3 [2]": {"system": "SK-BR-3", "assay": "drug sensitivity score (DSS), CellTiter-Blue viability (DSS (AUC-based score)); higher = stronger viability inhibition; extreme values may be limits of the assay", "procedure,_shortened": "as §1"}, "HDQ-P1 [3]": {"system": "HDQ-P1", "assay": "drug sensitivity score (DSS), CellTiter-Blue viability (DSS (AUC-based score)); higher = stronger viability inhibition; extreme values may be limits of the assay", "procedure,_shortened": "as §1"}, "CAL-148 [4]": {"system": "CAL-148", "assay": "drug sensitivity score (DSS), CellTiter-Blue viability (DSS (AUC-based score)); higher = stronger viability inhibition; extreme values may be limits of the assay", "procedure,_shortened": "as §1"}, "BT-549 [5]": {"system": "BT-549", "assay": "drug sensitivity score (DSS), CellTiter-Blue viability (DSS (AUC-based score)); higher = stronger viability inhibition; extreme values may be limits of the assay", "procedure,_shortened": "as §1"}, "DU-4475 [6]": {"system": "DU-4475", "assay": "drug sensitivity score (DSS), CellTiter-Blue viability (DSS (AUC-based score)); higher = stronger viability inhibition; extreme values may be limits of the assay", "procedure,_shortened": "as §1"}, "HCC1599": {"system": "HCC1599", "assay": "drug sensitivity score (DSS), CellTiter-Blue viability (DSS (AUC-based score)); higher = stronger viability inhibition; extreme values may be limits of the assay", "procedure,_shortened": "as §1"}, "MDA-MB-231 [7]": {"system": "MDA-MB-231", "assay": "drug sensitivity score (DSS), CellTiter-Blue viability (DSS (AUC-based score)); higher = stronger viability inhibition; extreme values may be limits of the assay", "procedure,_shortened": "as §1"}, "BT-474 [8]": {"system": "BT-474", "assay": "drug sensitivity score (DSS), CellTiter-Glo (DSS (AUC-based score)); higher = stronger drug effect (viability inhibition or cytotoxicity); extreme values may be limits of the assay", "procedure,_shortened": "(§2)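 Compound was dispensed into 384-well plates at 5 concentrations in 10-fold steps spanning a 10,000-fold range chosen for each compound, and 20 µl of breast cancer cell suspension was added before 72 h of incubation. CellTox Green fluorescence was read at 485/520 nm, followed by CellTiter-Glo luminescence after 10 min at room temperature. Values on each plate were normalised to 0.1 % DMSO and a positive kill control. The drug sensitivity score came from the area under the fitted dose-response curve.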"}, "SK-BR-3 [9]": {"system": "SK-BR-3", "assay": "drug sensitivity score (DSS), CellTiter-Glo (DSS (AUC-based score)); higher = stronger drug effect (viability inhibition or cytotoxicity); extreme values may be limits of the assay", "procedure,_shortened": "as §2"}, "HDQ-P1 [10]": {"system": "HDQ-P1", "assay": "drug sensitivity score (DSS), CellTiter-Glo (DSS (AUC-based score)); higher = stronger drug effect (viability inhibition or cytotoxicity); extreme values may be limits of the assay", "procedure,_shortened": "as §2"}, "CAL-148 [11]": {"system": "CAL-148", "assay": "drug sensitivity score (DSS), CellTiter-Glo (DSS (AUC-based score)); higher = stronger drug effect (viability inhibition or cytotoxicity); extreme values may be limits of the assay", "procedure,_shortened": "as §2"}, "CAL-120": {"system": "CAL-120", "assay": "drug sensitivity score (DSS), CellTiter-Glo (DSS (AUC-based score)); higher = stronger drug effect (viability inhibition or cytotoxicity); extreme values may be limits of the assay", "procedure,_shortened": "as §2"}, "MCF-10A": {"system": "MCF-10A", "assay": "drug sensitivity score (DSS), CellTiter-Glo (DSS (AUC-based score)); higher = stronger drug effect (viability inhibition or cytotoxicity); extreme values may be limits of the assay", "procedure,_shortened": "as §2"}, "MDA-MB-436": {"system": "MDA-MB-436", "assay": "drug sensitivity score (DSS), CellTiter-Glo (DSS (AUC-based score)); higher = stronger drug effect (viability inhibition or cytotoxicity); extreme values may be limits of the assay", "procedure,_shortened": "as §2"}, "CAL-51": {"system": "CAL-51", "assay": "drug sensitivity score (DSS), CellTiter-Glo (DSS (AUC-based score)); higher = stronger drug effect (viability inhibition or cytotoxicity); extreme values may be limits of the assay", "procedure,_shortened": "as §2"}, "BT-549 [12]": {"system": "BT-549", "assay": "drug sensitivity score (DSS), CellTiter-Glo (DSS (AUC-based score)); higher = stronger drug effect (viability inhibition or cytotoxicity); extreme values may be limits of the assay", "procedure,_shortened": "as §2"}, "DU-4475 [13]": {"system": "DU-4475", "assay": "drug sensitivity score (DSS), CellTiter-Glo (DSS (AUC-based score)); higher = stronger drug effect (viability inhibition or cytotoxicity); extreme values may be limits of the assay", "procedure,_shortened": "as §2"}, "HCC1143": {"system": "HCC1143", "assay": "drug sensitivity score (DSS), CellTiter-Glo (DSS (AUC-based score)); higher = stronger drug effect (viability inhibition or cytotoxicity); extreme values may be limits of the assay", "procedure,_shortened": "as §2"}, "Hs578T": {"system": "Hs578T", "assay": "drug sensitivity score (DSS), CellTiter-Glo (DSS (AUC-based score)); higher = stronger drug effect (viability inhibition or cytotoxicity); extreme values may be limits of the assay", "procedure,_shortened": "as §2"}, "MDA-MB-468": {"system": "MDA-MB-468", "assay": "drug sensitivity score (DSS), CellTiter-Glo (DSS (AUC-based score)); higher = stronger drug effect (viability inhibition or cytotoxicity); extreme values may be limits of the assay", "procedure,_shortened": "as §2"}, "MDA-MB-453": {"system": "MDA-MB-453", "assay": "drug sensitivity score (DSS), CellTiter-Glo (DSS (AUC-based score)); higher = stronger drug effect (viability inhibition or cytotoxicity); extreme values may be limits of the assay", "procedure,_shortened": "as §2"}, "MDA-MB-231 [14]": {"system": "MDA-MB-231", "assay": "drug sensitivity score (DSS), CellTiter-Glo (DSS (AUC-based score)); higher = stronger drug effect (viability inhibition or cytotoxicity); extreme values may be limits of the assay", "procedure,_shortened": "as §2"}, "MFM-223": {"system": "MFM-223", "assay": "drug sensitivity score (DSS), CellTiter-Glo (DSS (AUC-based score)); higher = stronger drug effect (viability inhibition or cytotoxicity); extreme values may be limits of the assay", "procedure,_shortened": "as §2"}, "HCC1937": {"system": "HCC1937", "assay": "drug sensitivity score (DSS), CellTiter-Glo (DSS (AUC-based score)); higher = stronger drug effect (viability inhibition or cytotoxicity); extreme values may be limits of the assay", "procedure,_shortened": "as §2"}}}
{"smiles": "Cn1cnc2c(F)c(Nc3ccc(Br)cc3F)c(C(=O)NOCCO)cc21", "note": "[MEK-162]", "values": [{"measurement": "drug sensitivity score", "setting": "BT-474 [1]", "value": 0}, {"measurement": "drug sensitivity score", "setting": "SK-BR-3 [2]", "value": 0}, {"measurement": "drug sensitivity score", "setting": "HDQ-P1 [3]", "value": 0}, {"measurement": "drug sensitivity score", "setting": "CAL-148 [4]", "value": 0}, {"measurement": "drug sensitivity score", "setting": "BT-549 [5]", "value": 0}, {"measurement": "drug sensitivity score", "setting": "DU-4475 [6]", "value": 16}, {"measurement": "drug sensitivity score", "setting": "HCC1599", "value": 2.32}, {"measurement": "drug sensitivity score", "setting": "MDA-MB-231 [7]", "value": 4.22}, {"measurement": "drug sensitivity score", "setting": "BT-474 [8]", "value": 2.42}, {"measurement": "drug sensitivity score", "setting": "SK-BR-3 [9]", "value": 0}, {"measurement": "drug sensitivity score", "setting": "HDQ-P1 [10]", "value": 5.43}, {"measurement": "drug sensitivity score", "setting": "CAL-148 [11]", "value": 0}, {"measurement": "drug sensitivity score", "setting": "CAL-120", "value": 0.188}, {"measurement": "drug sensitivity score", "setting": "MCF-10A", "value": 13.3}, {"measurement": "drug sensitivity score", "setting": "MDA-MB-436", "value": 0}, {"measurement": "drug sensitivity score", "setting": "CAL-51", "value": 0}, {"measurement": "drug sensitivity score", "setting": "BT-549 [12]", "value": 0}, {"measurement": "drug sensitivity score", "setting": "DU-4475 [13]", "value": 12.5}, {"measurement": "drug sensitivity score", "setting": "HCC1143", "value": 0}, {"measurement": "drug sensitivity score", "setting": "Hs578T", "value": 0}, {"measurement": "drug sensitivity score", "setting": "MDA-MB-468", "value": 0}, {"measurement": "drug sensitivity score", "setting": "MDA-MB-453", "value": 0}, {"measurement": "drug sensitivity score", "setting": "MDA-MB-231 [14]", "value": 0}, {"measurement": "drug sensitivity score", "setting": "MFM-223", "value": 0}, {"measurement": "drug sensitivity score", "setting": "HCC1937", "value": 0}]}
{"smiles": "C[C@@H]1C=C2C(=O)O[C@@H]3CC[C@H](C1)[C@]23O", "note": "[Galiellalactone]", "values": [{"measurement": "drug sensitivity score", "setting": "BT-474 [1]", "value": 2.65}, {"measurement": "drug sensitivity score", "setting": "SK-BR-3 [2]", "value": 6.66}, {"measurement": "drug sensitivity score", "setting": "HDQ-P1 [3]", "value": 2.82}, {"measurement": "drug sensitivity score", "setting": "CAL-148 [4]", "value": 4.5}, {"measurement": "drug sensitivity score", "setting": "BT-549 [5]", "value": 10.4}, {"measurement": "drug sensitivity score", "setting": "DU-4475 [6]", "value": 0}, {"measurement": "drug sensitivity score", "setting": "HCC1599", "value": 0}, {"measurement": "drug sensitivity score", "setting": "MDA-MB-231 [7]", "value": 9.39}, {"measurement": "drug sensitivity score", "setting": "BT-474 [8]", "value": 0}, {"measurement": "drug sensitivity score", "setting": "SK-BR-3 [9]", "value": 0}, {"measurement": "drug sensitivity score", "setting": "HDQ-P1 [10]", "value": 0}, {"measurement": "drug sensitivity score", "setting": "CAL-148 [11]", "value": 0}, {"measurement": "drug sensitivity score", "setting": "CAL-120", "value": 0}, {"measurement": "drug sensitivity score", "setting": "MCF-10A", "value": 0}, {"measurement": "drug sensitivity score", "setting": "MDA-MB-436", "value": 0}, {"measurement": "drug sensitivity score", "setting": "CAL-51", "value": 4.43}, {"measurement": "drug sensitivity score", "setting": "BT-549 [12]", "value": 2.89}, {"measurement": "drug sensitivity score", "setting": "DU-4475 [13]", "value": 0}, {"measurement": "drug sensitivity score", "setting": "HCC1143", "value": 0}, {"measurement": "drug sensitivity score", "setting": "Hs578T", "value": 0}, {"measurement": "drug sensitivity score", "setting": "MDA-MB-468", "value": 6.03}, {"measurement": "drug sensitivity score", "setting": "MDA-MB-453", "value": 0}, {"measurement": "drug sensitivity score", "setting": "MDA-MB-231 [14]", "value": 0}, {"measurement": "drug sensitivity score", "setting": "MFM-223", "value": 0}, {"measurement": "drug sensitivity score", "setting": "HCC1937", "value": 0}]}
